# Test results published in patent US7727736B2, “Soluble phospholipids for use in clotting factor assays” (The University of North Carolina at Chapel Hill, priority 2003, dated 2010).
# How the values were obtained:
# FXa [1] = molecular target: T1, FXa (Homo sapiens, UniProt P00742); design: Human prothrombin and factor Xa; purchased Hematologic Technologies Inc. (factor Xa); factor Va from human plasma, in house; details: Nesheim et al. (1979); cited from earlier work
# FXa [2] = molecular target: T1, FXa; assay: Influence of DAPA on FXa activity in prothrombin activation; format: biochemical; design: Human prothrombin and factor Xa; purchased Hematologic Technologies Inc. (factor Xa); factor Va from human plasma, in house; details: in the presence of C6PS, concentration of DAPA used herein
# Experimental: Despite this, it has been shown that it provides rates of prothrombin activation in the presence of PS/PC membranes equivalent to those detected by activity measurements (Wu, et al. (2002) supra; Weinreb, et al. (2003) supra). To test whether DAPA influenced the activity of FXa in the presence of C6PS, the expected DAPA fluorescence was calculated based on the rate of appearance of thrombin and MzIIa, as detected by synthetic substrate assay as recorded in FIG. 6A. This calculation has been described (Wu, et al. (2002) supra) and its results, as applied to the data herein, are shown in the inset to FIG. 6A (filled circles) along with an experimental time-course of DAPA fluorescence change (open diamonds) reflecting prothrombin activation. Similar results were obtained at the other prothrombin concentrations examined.
# T1 sequence (P00742 41-179 limits assumed): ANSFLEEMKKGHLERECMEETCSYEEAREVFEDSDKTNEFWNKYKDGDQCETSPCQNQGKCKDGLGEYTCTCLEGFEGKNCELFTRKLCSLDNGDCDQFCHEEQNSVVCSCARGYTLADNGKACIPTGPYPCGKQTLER
# T1 sequence (P00742 235-488 limits assumed): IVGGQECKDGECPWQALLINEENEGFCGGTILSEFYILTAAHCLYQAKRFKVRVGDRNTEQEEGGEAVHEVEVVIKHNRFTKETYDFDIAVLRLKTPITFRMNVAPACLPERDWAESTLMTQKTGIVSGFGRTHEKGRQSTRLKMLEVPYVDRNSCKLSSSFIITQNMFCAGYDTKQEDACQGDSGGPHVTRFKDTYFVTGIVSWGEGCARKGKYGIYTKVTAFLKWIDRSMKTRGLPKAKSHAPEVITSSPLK
# T1 sequence (P12259 29-737 partner limits assumed): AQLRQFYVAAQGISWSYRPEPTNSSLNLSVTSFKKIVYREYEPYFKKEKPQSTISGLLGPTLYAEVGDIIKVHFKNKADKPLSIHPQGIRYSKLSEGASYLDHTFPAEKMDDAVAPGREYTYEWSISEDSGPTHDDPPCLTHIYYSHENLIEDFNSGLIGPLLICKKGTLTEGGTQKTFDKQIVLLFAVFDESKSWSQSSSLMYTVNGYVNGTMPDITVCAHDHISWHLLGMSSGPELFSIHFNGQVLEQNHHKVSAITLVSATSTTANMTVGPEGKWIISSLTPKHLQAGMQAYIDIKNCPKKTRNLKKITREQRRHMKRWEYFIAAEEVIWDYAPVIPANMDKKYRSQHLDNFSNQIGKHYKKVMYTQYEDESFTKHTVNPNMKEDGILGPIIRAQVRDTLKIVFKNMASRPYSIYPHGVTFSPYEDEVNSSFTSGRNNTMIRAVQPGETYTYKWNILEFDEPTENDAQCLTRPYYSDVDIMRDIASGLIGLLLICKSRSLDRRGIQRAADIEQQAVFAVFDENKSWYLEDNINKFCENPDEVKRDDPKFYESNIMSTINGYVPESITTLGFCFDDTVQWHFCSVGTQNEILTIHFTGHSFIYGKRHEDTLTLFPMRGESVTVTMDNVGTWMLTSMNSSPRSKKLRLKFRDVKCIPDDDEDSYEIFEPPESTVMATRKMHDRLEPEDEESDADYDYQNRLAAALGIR
# T1 sequence (P12259 1574-2224 partner limits assumed): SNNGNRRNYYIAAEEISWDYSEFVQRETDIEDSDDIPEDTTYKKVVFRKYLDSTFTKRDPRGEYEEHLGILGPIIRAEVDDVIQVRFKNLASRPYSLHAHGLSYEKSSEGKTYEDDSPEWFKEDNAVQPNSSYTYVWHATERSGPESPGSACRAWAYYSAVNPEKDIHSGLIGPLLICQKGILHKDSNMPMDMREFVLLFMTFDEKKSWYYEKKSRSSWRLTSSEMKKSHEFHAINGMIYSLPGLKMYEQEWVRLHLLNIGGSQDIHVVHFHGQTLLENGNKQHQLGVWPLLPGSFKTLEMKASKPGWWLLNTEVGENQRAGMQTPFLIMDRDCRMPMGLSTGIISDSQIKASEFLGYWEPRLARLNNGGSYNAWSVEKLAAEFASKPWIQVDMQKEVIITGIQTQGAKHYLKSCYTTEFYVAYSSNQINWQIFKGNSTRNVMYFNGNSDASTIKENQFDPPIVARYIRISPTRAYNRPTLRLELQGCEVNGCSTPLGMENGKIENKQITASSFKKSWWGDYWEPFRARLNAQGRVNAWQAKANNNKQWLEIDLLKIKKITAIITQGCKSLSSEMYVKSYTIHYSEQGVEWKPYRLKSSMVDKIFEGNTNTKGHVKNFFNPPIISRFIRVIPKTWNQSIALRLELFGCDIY
structure (smiles),measurement,setting,value
"CCC1CCN(C(=O)C(CCCN=C(N)N)NS(=O)(=O)c2cccc3c(N(C)C)cccc23)CC1 (centres unmarked) [DAPA, dansylarginine-N-(3-ethyl-1,5-pentanediyl) amide]",inhibition of FXa by DAPA,FXa [1],weak competitive inhibitor
same,influence of DAPA on FXa activity,FXa [2],does not influence FXa activity to a measurable extent
